Earlier results on one molecule are cited in PMC5721631 (BMJ Open Ophthalmology, 2017).

The test system of this data set is adrenal cortisol biosynthesis (CYP11B1). To be noted: single oral administration.

Take `CC(C)(C(=O)c1cccnc1)c1cccnc1` [Metpyrapone, metyrapone]: the “plasma cortisol reduction from baseline” value is “Up to about 80% plasma cortisol reduction from baseline”.
